Like-named read-outs stand apart in the source and are kept apart here.
Key:
[1] = system: Leishmania donovani axenic amastigote parasites; test: Leishmania donovani axenic amastigote proliferation assay (Cell TiterGlo luminescence, 2 day incubation); format: cell-based; settings: Leishmania donovani
[2] = system: Trypanosoma cruzi amastigotes (Tulahuen strain expressing Lac-Z) cultured in 3T3 fibroblast cells; test: microbe, parasite or virus in culture; format: cell-based; settings: Trypanosoma cruzi, TULAHUEN
[3] = system: L. donovani HU3 strain in mouse peritoneal macrophages; test: Assay for proliferation of Leishmania parasites in infected mouse peritoneal macrophages (SybrGreen staining, high-content imaging, 5 days); format: cell-based, Leishmania donovani; settings: Leishmania donovani, Peritoneal macrophage
[4] = axenic amastigotes, inhibition of proliferation, read-out: L. donovani amastigotes EC50
[5] = Fibroblast, T. cruzi amastigotes in 3T3 fibroblast cells, inhibition of proliferation, read-out: T cruzi EC50
[6] = L. donovani in mouse peritoneal macrophages, inhibition of proliferation, read-out: L. donovani Macrophage EC50
[7] = L. donovani axenic amastigotes, read-out: L. donovani amastigotes EC50
[8] = Fibroblast, T. cruzi amastigotes in 3T3 fibroblast cells, read-out: T cruzi EC50
[9] = L. donovani in mouse peritoneal macrophages, read-out: L. donovani Macrophage EC50

Row | SMILES | EC50 [1, 4] [µM] | EC50 [2, 5] [µM] | EC50 [3, 6] [µM] | EC50 [1, 7] [µM] | EC50 [2, 8] [µM] | EC50 [3, 9] [µM] | further results
1 | CC(C)OC(=O)Nc1cnc2nc(-c3cc(NC(=O)[C@@H](N)c4ccccc4)ccc3F)cn2c1 [Compound 84] | > 25 | 8.62 | 9.91 | – | – | – | –
2 | O=C(Nc1ccc(F)c(-c2cn3cc(-c4ccccc4)cnc3n2)c1)N1CCC1 [Compound 321] | 0.008 | 0.005 | 0.015 | – | – | – | –
3 | CC(C)OC(=O)Nc1cnc2nc(-c3cc(NC(=O)N4CCC(=O)C4)ccc3Cl)cn2c1 [Compound 281] | 8.7 | > 20 | > 37.1 | – | – | – | –
4 | Cc1nc(C)c(C(=O)Nc2ccc(F)c(-c3cn4cc(NC5=NCCN5C)cnc4n3)c2)o1 [Compound 506] | – | – | – | > 25 | > 18.2 | > 25.9 | –
5 | Cc1nc(C)c(C(=O)Nc2ccc(F)c(-c3cn4cc(C5=CCN(C(=O)OC(C)(C)C)CC5)cnc4n3)c2)o1 [Compound 347] | 0.154 | 0.099 | 0.151 | – | – | – | –
6 | COCCOC(=O)Nc1ccc(F)c(-c2cn3cc(NC(=O)OC(C)C)cnc3n2)c1 [Compound 303] | > 20.3 | 17.7 | > 50 | – | – | – | –
7 | CC(C)OC(=O)Nc1cnc2nc(-c3cc(NC(=O)N4CCCC4C)ccc3Cl)cn2c1 (stereo not shown) [Compound 272] | 1.69 | 1.29 | 3.37 | – | – | – | –
8 | C[Si](C)(C)CCOCn1cnc(-c2cnc3nc(-c4cc(NC(=O)N5CCCC5)ccc4Cl)cn3c2)c1 [Compound 344] | 0.073 | 0.051 | 0.158 | – | – | – | –
9 | CC(C)OC(=O)Nc1cnc2nc(-c3cc(NC(=O)c4ccc(F)o4)ccc3F)cn2c1 [Compound 63] | 0.089 | 0.124 | 0.222 | – | – | – | –
10 | CC(C)OC(=O)Nc1cnc2nc(-c3cc(NC(=O)c4ccc(F)o4)ccc3Cl)cn2c1 [Compound 1, Propan-2-yl N-{2-[2-chloro-5-(5-fluorofuran-2-amido)phenyl]imidazo[1,2-a]pyrimidin-6-yl}carbamate] | 0.088 | 0.03 | 0.243 | – | – | – | EC50 ([2]; NIH3T3, 144 h, T. cruzi amastigotes in 3T3 cells, 6 day incubation, read-out: EC50): 0.03 µM
11 | CCn1nccc1-c1cnc2nc(-c3cc(NC(=O)c4oc(C)nc4C)ccc3F)cn2c1 [Compound 387] | – | – | – | 0.086 | 0.149 | 0.286 | –
12 | Cc1nc(C)c(C(=O)Nc2ccc(F)c(-c3cn4cc(-c5ccccn5)cnc4n3)c2)o1 [Compound 394] | – | – | – | 0.08 | > 20 | 0.107 | –
13 | Cc1nc(C)c(C(=O)Nc2ccc(Cl)c(-c3cn4cc(N5CCOC5=O)cnc4n3)c2)o1 [Compound 520, N-(4-chloro-3-(6-(2-oxooxazolidin-3-yl)imidazo[1,2-a]pyrimidin-2-yl)phenyl)-2,4-dimethyloxazole-5-carboxamide] | – | – | – | > 25 | > 20 | > 50 | –
14 | COC(C)C(=O)Nc1ccc(Cl)c(-c2cn3cc(NC(=O)OC(C)C)cnc3n2)c1 (stereo not shown) [Compound 54] | 1.97 | 1.29 | 14.5 | – | – | – | –
15 | CC(C)OC(=O)Nc1cnc2nc(-c3cc(NC(=O)c4ccc(C#N)o4)ccc3Cl)cn2c1 [Compound 48] | 0.082 | 0.157 | 0.139 | – | – | – | –
16 | Cc1nc(C)c(C(=O)N(C)c2ccc(F)c(-c3cn4cc(NC(C)C)cnc4n3)c2)o1 [Compound 557] | – | – | – | > 25 | > 20 | > 50 | –
17 | CC(C)NNC(=O)Nc1cnc2nc(-c3cc(NC(=O)N4CCCC4)ccc3F)cn2c1 [Compound 522] | – | – | – | 19.3 | > 20 | > 50 | –
18 | CC(C)(CO)c1nc(Nc2ccc(F)c(-c3cn4cc(C5CC5)cnc4n3)c2)no1 [Compound 596] | – | – | – | > 21.2 | 3.74 | 0.075 | –
19 | Cc1cnoc1C(=O)Nc1ccc(F)c(-c2cn3cc(NC(=O)OC(C)C)cnc3n2)c1 [Compound 111] | > 25 | > 20 | > 50 | – | – | – | –
20 | Cc1nc(C)c(C(=O)Nc2ccc(F)c(-c3cn4cc(-c5cccc(N6CCNCC6)n5)cnc4n3)c2)o1 [Compound 572] | – | – | – | 1.94 | 0.394 | 2.36 | –
21 | NNC(=O)Nc1cnc2nc(-c3cc(NC(=O)N4CCCC4)ccc3F)cn2c1 [Compound 521, N-(4-fluoro-3-(6-(hydrazinecarboxamido)imidazo[1,2-a]pyrimidin-2-yl)phenyl)pyrrolidine-1-carboxamide] | – | – | – | 4.68 | 9.23 | 38.2 | –
22 | Cc1nc(C)c(C(=O)Nc2ccc(F)c(-c3cn4cc(C5=CCN(C)CC5)cnc4n3)c2)o1 [Compound 361] | 7.93 | 1.04 | 0.993 | – | – | – | –

Row | SMILES | EC50 [1, 4] [µM] | EC50 [2, 5] [µM] | EC50 [3, 6] [µM] | EC50 [1, 7] [µM] | EC50 [2, 8] [µM] | EC50 [3, 9] [µM] | further results
23 | CC(C)OC(=O)Nc1cnc2nc(-c3cc(NC(=O)N4CC(N(C)C(=O)OC(C)(C)C)C4)ccc3F)cn2c1 [Compound 293] | > 25 | > 16.5 | > 38.2 | – | – | – | –
24 | Cc1nc(C)c(C(=O)Nc2ccc(F)c(-c3cn4cc(-c5nc(C)c(C)s5)cnc4n3)c2)o1 [Compound 457, N-(3-(6-(4,5-dimethylthiazol-2-yl)imidazo[1,2-a]pyrimidin-2-yl)-4-fluorophenyl)-2,4-dimethyloxazole-5-carboxamide] | – | – | – | 0.162 | 0.32 | 13.2 | –
25 | O=C(Nc1ccc(F)c(-c2cn3cc(C4CCOCC4)cnc3n2)c1)N1CCCC1 [Compound 419] | – | – | – | 0.077 | 0.114 | 0.182 | –
26 | CC(C)OC(=O)Nc1cnc2nc(-c3cc(NC(=O)N4CCC4)ccc3Cl)cn2c1 [Compound 278] | 0.177 | 1.09 | 1.08 | – | – | – | –
27 | COC1CC(NC(=O)Nc2ccc(Cl)c(-c3cn4cc(NC(=O)OC(C)C)cnc4n3)c2)C1 (stereo not shown) [Compound 284] | > 25 | 13 | 17 | – | – | – | –
28 | CNc1ccc(-c2cnc3nc(-c4cc(NC(=O)N5CCCC5)ccc4F)cn3c2)cc1 [Compound 351] | 0.071 | 0.095 | 0.13 | – | – | – | –
29 | O=C(Nc1ccc(F)c(-c2cn3cc(-c4ccccn4)cnc3n2)c1)N1CC(F)C1 [Compound 400] | – | – | – | 0.045 | 0.199 | 0.203 | –
30 | C=C(c1ccccc1)c1cnc2nc(-c3cc(NC(=O)c4oc(C)nc4C)ccc3F)cn2c1 [Compound 346] | 0.355 | 0.159 | 0.49 | – | – | – | –
31 | CNC(=O)Nc1ccc(F)c(-c2cn3cc(NC(=O)OC(C)C)cnc3n2)c1 [Compound 220] | 0.606 | 1.37 | 4.97 | – | – | – | –
32 | Cc1nc(C)c(C(=O)Nc2ccc(F)c(-c3cn4cc(N5CCOCC5)cnc4n3)c2)o1 [Compound 490] | – | – | – | 0.134 | 0.157 | 0.383 | –
33 | CC(=O)Nc1cnc2nc(-c3cc(NC(=O)c4oc(C)nc4C)ccc3F)cn2c1 [Compound 525, N-(3-(6-acetamidoimidazo[1,2-a]pyrimidin-2-yl)-4-fluorophenyl)-2,4-dimethyloxazole-5-carboxamide] | – | – | – | – | – | – | EC50 ([1]; read-out: L. donovani amastigotes EC50 (μM)): 5.35 µM; EC50 ([2]; Fibroblast, read-out: T cruzi EC50 (μM)): > 20 µM; EC50 ([3]; read-out: L. donovani Macrophage EC50 (μM)): 21.1 µM
34 | Cc1nc(C)c(C(=O)Nc2ccc(F)c(-c3cn4cc(C5CCOCC5)cnc4n3)c2)o1 [Compound 421] | – | – | – | 0.127 | 0.17 | 0.337 | –
35 | CC(C)OC(=O)Nc1cnc2nc(-c3cc(NC(=O)N4CCN(C)CC4)ccc3Cl)cn2c1 [Compound 218] | > 25 | > 20 | 31.7 | – | – | – | –
36 | Cc1nc(C)c(C(=O)Nc2ccc(F)c(-c3cn4cc(NC(=O)C5CCCCO5)cnc4n3)c2)o1 (stereo not shown) [Compound 151] | 0.136 | 0.59 | 0.429 | – | – | – | –
37 | CC(C)OC(=O)Nc1cnc2nc(-c3cc(NC(=O)C(C)OCC(F)(F)F)ccc3Cl)cn2c1 (stereo not shown) [Compound 58] | 14.2 | 4.53 | 10.5 | – | – | – | –
38 | CC(C)(C)OC(=O)N1CC=C(c2cnc3nc(-c4cc(NC(=O)N5CCCC5)ccc4Cl)cn3c2)CC1 [Compound 343, tert-butyl 4-(2-(2-chloro-5-(pyrrolidine-1-carboxamido)phenyl)imidazo[1,2-a]pyrimidin-6-yl)-5,6-dihydropyridine-1(2H)-carboxylate] | 0.106 | 0.074 | 0.308 | – | – | – | –
39 | COc1cnc2nc(-c3cc(NC(=O)N4CCCC4)ccc3F)cn2c1 [Compound 536, N-(4-fluoro-3-(6-methoxyimidazo[1,2-a]pyrimidin-2-yl)phenyl)pyrrolidine-1-carboxamide] | – | – | – | 0.348 | 0.153 | 2 | –
40 | CC1(c2nc(Nc3ccc(F)c(-c4cn5cc(C6CC6)cnc5n4)c3)no2)COC1 [Compound 595, N-(3-(6-cyclopropylimidazo[1,2-a]pyrimidin-2-yl)-4-fluorophenyl)-5-(3-methyloxetan-3-yl)-1,2,4-oxadiazol-3-amine] | – | – | – | > 25 | 9.17 | > 50 | –
41 | COCCNc1cnc2nc(-c3cc(NC(=O)N4CCCC4)ccc3Cl)cn2c1 [Compound 496] | – | – | – | 2.06 | 2.12 | 8.85 | –
42 | O=C(Nc1ccc(F)c(-c2cn3cc(-c4ccccc4)cnc3n2)c1)N1CCCC1 [Compound 358] | 0.03 | 0.012 | 0.148 | – | – | – | –
43 | CC(C)OC(=O)Nc1cnc2nc(-c3cc(NC(=O)C4CCCCO4)ccc3Cl)cn2c1 (stereo not shown) [Compound 57] | 0.861 | 0.411 | 2.94 | – | – | – | –
44 | CC(C)OC(=O)Nc1cnc2nc(-c3cc(NC(=O)N4CCC[C@H]4C(N)=O)ccc3Cl)cn2c1 [Compound 262] | > 25 | > 20 | > 50 | – | – | – | –
